# Experimental data: ChEMBL document CHEMBL3526097, “Preclinical disposition of GDC-0973 and prospective and retrospective analysis of human dose and efficacy predictions” (Drug Metab Dispos, 2012); call rule not given here
# How the values were obtained:
# [1] = Percentage unbound in human alpha-1-acid glycoprotein at 1 uM after 5 hrs by equilibrium dialysis; assay type: ADME
# [2] = Percentage unbound in rat plasma at 5 uM after 5 hrs by equilibrium dialysis; assay type: ADME, cell-free
# [3] = Drug uptake in Long-Evans rat lacrimal gland at 30 mg/kg, po after 2 hrs by autoradiography; assay type: ADME, organism-based, Lachrymal gland; parameters: dose 30 mg/kg, route oral; details: in vivo
# [4] = Drug excretion in bile duct-cannulated Beagle dog bile at 30 mg/kg, po after 168 hrs by liquid scintillation counting; assay type: ADME, organism-based, Canis lupus familiaris; parameters: dose 30 mg/kg, route oral; details: in vivo
# [5] = Percentage unbound in dog plasma at 10 uM after 5 hrs by equilibrium dialysis; assay type: ADME, cell-free, Canis lupus familiaris
# [6] = Percentage unbound in cynomolgus monkey plasma at 1 uM after 5 hrs by equilibrium dialysis; assay type: ADME, cell-free, Macaca fascicularis
# [7] = Percentage unbound in human plasma at 10 uM after 5 hrs by equilibrium dialysis; assay type: ADME, cell-free
# [8] = Percentage unbound in mouse plasma at 10 uM after 5 hrs by equilibrium dialysis; assay type: ADME, cell-free
# [9] = Ratio of drug level in blood to plasma in CD1 mouse at 10 uM after 30 mins; assay type: ADME
# [10] = Percentage unbound in rat plasma at 10 uM after 5 hrs by equilibrium dialysis; assay type: ADME, cell-free
# [11] = Percentage unbound in mouse plasma at 5 uM after 5 hrs by equilibrium dialysis; assay type: ADME, cell-free
# [12] = Drug excretion in bile duct-intact Beagle dog urine at 30 mg/kg, po after 72 hrs by liquid scintillation counting; assay type: ADME, organism-based, Canis lupus familiaris; parameters: dose 30 mg/kg, route oral; details: in vivo
# [13] = Percentage unbound in human alpha-1-acid glycoprotein at 5 uM after 5 hrs by equilibrium dialysis; assay type: ADME
# [14] = Ratio of drug level in blood to plasma in human at 10 uM after 30 mins; assay type: ADME
# [15] = Ratio of drug level in blood to plasma in CD1 mouse at 1 uM after 30 mins; assay type: ADME
# [16] = Drug excretion in bile duct-intact Sprague-Dawley rat feces at 30 mg/kg, po after 48 hrs by liquid scintillation counting; assay type: ADME, organism-based; parameters: dose 30 mg/kg, route oral; details: in vivo
# [17] = Percentage unbound in human plasma at 5 uM after 5 hrs by equilibrium dialysis; assay type: ADME, cell-free
# Kidney = test: Drug uptake in Long-Evans rat kidney at 30 mg/kg, po after 72 hrs by autoradiography; assay type: ADME, organism-based; parameters: dose 30 mg/kg, route oral; details: in vivo
# [18] = Percentage unbound in cynomolgus monkey plasma at 5 uM after 5 hrs by equilibrium dialysis; assay type: ADME, cell-free, Macaca fascicularis
# [19] = Ratio of drug level in blood to plasma in beagle dog at 1 uM after 30 mins; assay type: ADME, Canis lupus familiaris
# [20] = Percentage unbound in human alpha-1-acid glycoprotein at 10 uM after 5 hrs by equilibrium dialysis; assay type: ADME
# Liver [21] = test: Drug uptake in Long-Evans rat liver at 30 mg/kg, po after 2 hrs by autoradiography; assay type: ADME, organism-based; parameters: dose 30 mg/kg, route oral; details: in vivo
# Large intestine = test: Drug uptake in Long-Evans rat large intestine at 30 mg/kg, po after 2 hrs by autoradiography; assay type: ADME, organism-based; parameters: dose 30 mg/kg, route oral; details: in vivo
# Albumin [22] = target: T1, Albumin (Homo sapiens, UniProt P02768); test: Percentage unbound in human serum albumin at 10 uM after 5 hrs by equilibrium dialysis; assay type: ADME
# [23] = Drug uptake in Long-Evans rat melanin containing tissue at 30 mg/kg, po after 72 hrs by autoradiography; assay type: ADME, organism-based; parameters: dose 30 mg/kg, route oral; details: in vivo
# Cerebrum = test: Drug uptake in Long-Evans rat cerebrum at 30 mg/kg, po after 4 hrs by autoradiography; assay type: ADME, organism-based; parameters: dose 30 mg/kg, route oral; details: in vivo
# [24] = Ratio of drug level in blood to plasma in cynomolgus monkey at 5 uM after 30 mins; assay type: ADME, Macaca fascicularis
# [25] = Ratio of drug level in blood to plasma in beagle dog at 5 uM after 30 mins; assay type: ADME, Canis lupus familiaris
# [26] = Drug excretion in bile duct-intact Beagle dog feces at 30 mg/kg, po after 72 hrs by liquid scintillation counting; assay type: ADME, organism-based, Canis lupus familiaris; parameters: dose 30 mg/kg, route oral; details: in vivo
# [27] = Ratio of drug level in blood to plasma in beagle dog at 10 uM after 30 mins; assay type: ADME, Canis lupus familiaris
# Albumin [28] = target: T1, Albumin; test: Percentage unbound in human serum albumin at 5 uM after 5 hrs by equilibrium dialysis; assay type: ADME
# [29] = Ratio of drug level in blood to plasma in CD1 mouse at 5 uM after 30 mins; assay type: ADME
# [30] = Percentage unbound in cynomolgus monkey plasma at 10 uM after 5 hrs by equilibrium dialysis; assay type: ADME, cell-free, Macaca fascicularis
# Adrenal gland = test: Drug uptake in Long-Evans rat adrenal gland at 30 mg/kg, po after 2 hrs by autoradiography; assay type: ADME, organism-based; parameters: dose 30 mg/kg, route oral; details: in vivo
# [31] = Ratio of drug level in blood to plasma in human at 5 uM after 30 mins; assay type: ADME
# [32] = Ratio of drug level in blood to plasma in human at 1 uM after 30 mins; assay type: ADME
# [33] = Percentage unbound in dog plasma at 1 uM after 5 hrs by equilibrium dialysis; assay type: ADME, cell-free, Canis lupus familiaris
# Lung = test: Drug uptake in Long-Evans rat lung at 30 mg/kg, po after 2 hrs by autoradiography; assay type: ADME, organism-based; parameters: dose 30 mg/kg, route oral; details: in vivo
# [34] = Drug excretion in bile duct-cannulated Sprague-Dawley rat bile at 30 mg/kg, po after 48 hrs by liquid scintillation counting; assay type: ADME, organism-based; parameters: dose 30 mg/kg, route oral; details: in vivo
# [35] = Drug excretion in bile duct-intact Sprague-Dawley rat urine at 30 mg/kg, po after 48 hrs by liquid scintillation counting; assay type: ADME, organism-based; parameters: dose 30 mg/kg, route oral; details: in vivo
# Intestine = test: Drug uptake in Long-Evans rat intestine at 30 mg/kg, po after 72 hrs by autoradiography; assay type: ADME, organism-based; parameters: dose 30 mg/kg, route oral; details: in vivo
# Albumin [36] = target: T1, Albumin; test: Percentage unbound in human serum albumin at 1 uM after 5 hrs by equilibrium dialysis; assay type: ADME
# [37] = Ratio of drug level in blood to plasma in cynomolgus monkey at 10 uM after 30 mins; assay type: ADME, Macaca fascicularis
# [38] = Ratio of drug level in blood to plasma in Sprague-Dawley rat at 10 uM after 30 mins; assay type: ADME
# [39] = Percentage unbound in mouse plasma at 1 uM after 5 hrs by equilibrium dialysis; assay type: ADME, cell-free
# [40] = Ratio of drug level in blood to plasma in Sprague-Dawley rat at 1 uM after 30 mins; assay type: ADME
# [41] = Percentage unbound in dog plasma at 5 uM after 5 hrs by equilibrium dialysis; assay type: ADME, cell-free, Canis lupus familiaris
# [42] = Percentage unbound in rat plasma at 1 uM after 5 hrs by equilibrium dialysis; assay type: ADME, cell-free
# Liver [43] = test: Drug uptake in Long-Evans rat liver at 30 mg/kg, po after 72 hrs by autoradiography; assay type: ADME, organism-based; parameters: dose 30 mg/kg, route oral; details: in vivo
# [44] = Ratio of drug level in blood to plasma in Sprague-Dawley rat at 5 uM after 30 mins; assay type: ADME
# [45] = Percentage unbound in human plasma at 1 uM after 5 hrs by equilibrium dialysis; assay type: ADME, cell-free
# [46] = Ratio of drug level in blood to plasma in cynomolgus monkey at 1 uM after 30 mins; assay type: ADME, Macaca fascicularis
# [47] = Efflux ratio of permeability from […] side in MDCK1 cells expressing MDR1 at 10 uM after 2 hrs by LC-MS/MS analysis; assay type: ADME, cell-based, Canis lupus familiaris; details: dog, mdck1, 2 h
# T1 sequence (P02768 whole entry): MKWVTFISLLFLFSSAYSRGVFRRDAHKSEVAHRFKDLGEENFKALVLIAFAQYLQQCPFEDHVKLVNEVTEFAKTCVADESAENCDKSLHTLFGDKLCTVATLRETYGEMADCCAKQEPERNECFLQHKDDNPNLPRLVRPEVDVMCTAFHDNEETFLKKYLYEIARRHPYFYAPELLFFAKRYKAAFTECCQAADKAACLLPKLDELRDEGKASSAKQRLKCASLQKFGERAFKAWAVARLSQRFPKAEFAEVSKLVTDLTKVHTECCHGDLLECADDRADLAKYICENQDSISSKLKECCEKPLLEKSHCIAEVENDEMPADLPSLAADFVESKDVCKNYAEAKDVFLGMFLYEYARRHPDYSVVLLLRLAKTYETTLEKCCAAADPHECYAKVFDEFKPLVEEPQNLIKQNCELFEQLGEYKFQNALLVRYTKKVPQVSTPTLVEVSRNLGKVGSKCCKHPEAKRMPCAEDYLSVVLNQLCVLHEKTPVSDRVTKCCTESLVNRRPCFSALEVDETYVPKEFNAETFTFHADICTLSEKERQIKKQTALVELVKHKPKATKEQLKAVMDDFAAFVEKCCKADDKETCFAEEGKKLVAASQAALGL
compound,measurement,setting,value
O=C(c1ccc(F)c(F)c1N[14c]1[14cH][14cH][14c](I)[14cH][14c]1F)N1CC(O)([C@@H]2CCCCN2)C1,"fraction unbound at 5 h, 1 µM",[1],0.044
same,"fraction unbound at 5 h, 5 µM",[2],0.035
same,Drug uptake,[3],Active
same,Drug excretion,[4],65%
same,"fraction unbound at 5 h, 10 µM",[5],0.014
same,"fraction unbound at 5 h, 1 µM",[6],0.045
same,"fraction unbound at 5 h, 10 µM",[7],0.058
same,"fraction unbound at 5 h, 10 µM",[8],0.033
same,"blood plasma ratio at 0.5 h, 10 µM",[9],1.27
same,"fraction unbound at 5 h, 10 µM",[10],0.037
same,"fraction unbound at 5 h, 5 µM",[11],0.034
same,Drug excretion,[12],6.3%
same,"fraction unbound at 5 h, 5 µM",[13],0.042
same,"blood plasma ratio at 0.5 h, 10 µM",[14],1.05
same,"blood plasma ratio at 0.5 h, 1 µM",[15],1.16
same,Drug excretion,[16],85%
same,"fraction unbound at 5 h, 5 µM",[17],0.065
same,Drug uptake,Kidney,Active
same,"fraction unbound at 5 h, 5 µM",[18],0.044
same,"blood plasma ratio at 0.5 h, 1 µM",[19],0.632
same,"fraction unbound at 5 h, 10 µM",[20],0.053
same,Drug uptake,Liver [21],Active
same,Drug uptake,Large intestine,Active
same,"fraction unbound at 5 h, 10 µM",Albumin [22],0.408
same,Drug uptake,[23],Active
same,Drug uptake,Cerebrum,Active
same,"blood plasma ratio at 0.5 h, 5 µM",[24],1.64
same,"blood plasma ratio at 0.5 h, 5 µM",[25],0.752
same,Drug excretion,[26],80%
same,"blood plasma ratio at 0.5 h, 10 µM",[27],0.936
same,"fraction unbound at 5 h, 5 µM",Albumin [28],0.408
same,"blood plasma ratio at 0.5 h, 5 µM",[29],1.19
same,"fraction unbound at 5 h, 10 µM",[30],0.048
same,Drug uptake,Adrenal gland,Active
same,"blood plasma ratio at 0.5 h, 5 µM",[31],0.945
same,"blood plasma ratio at 0.5 h, 1 µM",[32],0.933
same,"fraction unbound at 5 h, 1 µM",[33],0.007
same,Drug uptake,Lung,Active
same,Drug excretion,[34],74%
same,Drug excretion,[35],2.2%
same,Drug uptake,Intestine,Active
same,"fraction unbound at 5 h, 1 µM",Albumin [36],0.469
same,"blood plasma ratio at 0.5 h, 10 µM",[37],1.82
same,"blood plasma ratio at 0.5 h, 10 µM",[38],1.51
same,"fraction unbound at 5 h, 1 µM",[39],0.041
same,"blood plasma ratio at 0.5 h, 1 µM",[40],1.36
same,"fraction unbound at 5 h, 5 µM",[41],0.012
same,"fraction unbound at 5 h, 1 µM",[42],0.028
same,Drug uptake,Liver [43],Active
same,"blood plasma ratio at 0.5 h, 5 µM",[44],1.37
same,"fraction unbound at 5 h, 1 µM",[45],0.052
same,"blood plasma ratio at 0.5 h, 1 µM",[46],1.57
C[C@H]1O[C@@H](O[C@H]2[C@@H](O)C[C@H](O[C@H]3[C@@H](O)C[C@H](O[C@H]4CC[C@@]5(C)[C@H](CC[C@@H]6[C@@H]5C[C@@H](O)[C@]5(C)[C@@H](C7=CC(=O)OC7)CC[C@]65O)C4)O[C@@H]3C)O[C@@H]2C)C[C@H](O)[C@@H]1O [DIGOXIN],Ratio,[47],72
